This note sets out measurements from ChEMBL document CHEMBL4033665, “Synthesis and applications of benzohydroxamic acid-based histone deacetylase inhibitors” (Eur J Med Chem, 2017).

The structures appear in SMILES notation.

Experiment [1] is filed under the species Homo sapiens. In words: Selectivity index, ratio of IC50 for human HDAC5 to IC50 for human HDAC6.
The species named for experiment [2] is Homo sapiens. In words: Selectivity index, ratio of IC50 for human HDAC7 to IC50 for human HDAC6.
Experiment [3] is filed under the species Homo sapiens. Nature of the experiment: Selectivity index, ratio of IC50 for human HDAC2 to IC50 for human HDAC6.
In experiment [4] the target is T1, Histone deacetylase 11 (Homo sapiens, UniProt Q96DB2).
T1 sequence (Q96DB2 whole entry): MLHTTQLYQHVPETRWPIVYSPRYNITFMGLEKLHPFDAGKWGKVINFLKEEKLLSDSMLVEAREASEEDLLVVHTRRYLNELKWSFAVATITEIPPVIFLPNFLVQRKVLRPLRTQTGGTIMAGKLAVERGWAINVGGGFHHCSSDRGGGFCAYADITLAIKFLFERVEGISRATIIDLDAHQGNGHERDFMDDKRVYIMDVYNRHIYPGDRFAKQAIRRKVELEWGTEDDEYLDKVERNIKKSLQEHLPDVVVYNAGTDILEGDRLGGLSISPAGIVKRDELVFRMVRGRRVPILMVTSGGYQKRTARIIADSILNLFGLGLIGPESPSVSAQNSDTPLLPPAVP
In words: Inhibition of human HDAC11 after 15 mins by trypsin-coupled fluorescence assay.

Experiment [5] is filed under the species Homo sapiens. In words: Selectivity index, ratio of IC50 for human HDAC10 to IC50 for human HDAC6.
Experiment [6] has as its target Histone deacetylase 9 (Homo sapiens, UniProt Q9UKV0). Nature of the experiment: Inhibition of human HDAC9 after 15 mins by trypsin-coupled fluorescence assay.
Experiment [7] has as its target Histone deacetylase 3 (Homo sapiens, UniProt O15379). In words: Inhibition of human HDAC3 after 15 mins by trypsin-coupled fluorescence assay.
In experiment [8] the target is Histone deacetylase 4 (Homo sapiens, UniProt P56524). In words: Inhibition of human HDAC4 after 15 mins by trypsin-coupled fluorescence assay.
Histone deacetylase 4, sequence (P56524 whole entry): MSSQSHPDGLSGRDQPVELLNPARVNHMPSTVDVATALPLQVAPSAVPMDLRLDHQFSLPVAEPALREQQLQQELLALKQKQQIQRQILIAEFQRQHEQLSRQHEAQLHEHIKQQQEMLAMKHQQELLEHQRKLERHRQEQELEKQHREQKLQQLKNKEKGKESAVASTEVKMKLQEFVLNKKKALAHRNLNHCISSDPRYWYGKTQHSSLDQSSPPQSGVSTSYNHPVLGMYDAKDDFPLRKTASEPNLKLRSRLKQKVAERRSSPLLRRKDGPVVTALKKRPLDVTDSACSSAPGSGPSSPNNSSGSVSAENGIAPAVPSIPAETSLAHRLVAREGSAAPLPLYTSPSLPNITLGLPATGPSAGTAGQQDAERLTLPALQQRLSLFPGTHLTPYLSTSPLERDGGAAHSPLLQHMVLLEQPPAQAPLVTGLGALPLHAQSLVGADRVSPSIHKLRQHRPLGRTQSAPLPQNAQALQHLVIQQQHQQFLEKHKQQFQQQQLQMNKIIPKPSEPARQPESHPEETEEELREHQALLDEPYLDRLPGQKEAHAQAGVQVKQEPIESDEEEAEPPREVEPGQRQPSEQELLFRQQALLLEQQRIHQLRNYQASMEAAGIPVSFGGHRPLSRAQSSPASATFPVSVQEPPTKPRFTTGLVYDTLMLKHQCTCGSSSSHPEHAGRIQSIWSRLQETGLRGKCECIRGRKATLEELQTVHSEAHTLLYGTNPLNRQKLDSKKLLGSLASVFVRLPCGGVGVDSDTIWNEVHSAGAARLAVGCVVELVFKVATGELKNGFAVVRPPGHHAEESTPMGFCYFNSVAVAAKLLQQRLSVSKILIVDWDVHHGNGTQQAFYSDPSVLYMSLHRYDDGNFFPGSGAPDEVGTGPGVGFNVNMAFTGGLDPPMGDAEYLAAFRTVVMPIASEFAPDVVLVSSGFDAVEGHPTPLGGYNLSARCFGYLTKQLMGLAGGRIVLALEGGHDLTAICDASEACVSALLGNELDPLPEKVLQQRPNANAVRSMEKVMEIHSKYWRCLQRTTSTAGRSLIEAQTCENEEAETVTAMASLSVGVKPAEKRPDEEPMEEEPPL
The target of experiment [9] is T2, Histone deacetylase 7 (Homo sapiens, UniProt Q8WUI4).
T2 sequence (Q8WUI4 whole entry): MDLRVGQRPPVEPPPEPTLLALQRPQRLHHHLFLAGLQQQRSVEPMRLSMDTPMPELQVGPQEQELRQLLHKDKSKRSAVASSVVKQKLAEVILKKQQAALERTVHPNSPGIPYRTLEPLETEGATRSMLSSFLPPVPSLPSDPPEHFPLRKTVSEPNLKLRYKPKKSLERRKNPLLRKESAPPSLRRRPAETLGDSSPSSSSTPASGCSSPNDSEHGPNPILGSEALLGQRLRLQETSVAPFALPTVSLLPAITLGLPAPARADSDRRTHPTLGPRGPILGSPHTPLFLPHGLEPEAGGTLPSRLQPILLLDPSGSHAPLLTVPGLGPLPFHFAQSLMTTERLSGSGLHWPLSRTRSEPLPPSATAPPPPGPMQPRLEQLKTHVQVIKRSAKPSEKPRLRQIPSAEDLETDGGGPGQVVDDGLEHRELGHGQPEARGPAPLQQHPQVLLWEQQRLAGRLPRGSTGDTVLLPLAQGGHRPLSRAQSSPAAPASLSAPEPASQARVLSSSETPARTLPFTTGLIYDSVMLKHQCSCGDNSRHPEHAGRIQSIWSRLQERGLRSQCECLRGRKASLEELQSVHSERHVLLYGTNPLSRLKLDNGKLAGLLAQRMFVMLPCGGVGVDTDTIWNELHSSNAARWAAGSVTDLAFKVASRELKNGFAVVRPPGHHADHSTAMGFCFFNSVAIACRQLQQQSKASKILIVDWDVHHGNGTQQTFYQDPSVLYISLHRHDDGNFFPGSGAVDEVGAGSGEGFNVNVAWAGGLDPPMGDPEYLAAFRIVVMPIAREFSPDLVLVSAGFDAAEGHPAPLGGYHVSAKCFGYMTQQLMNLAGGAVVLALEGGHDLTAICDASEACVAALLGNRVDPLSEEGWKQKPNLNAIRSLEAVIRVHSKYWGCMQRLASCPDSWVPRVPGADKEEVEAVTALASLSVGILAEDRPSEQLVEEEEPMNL
In words: Inhibition of human HDAC7 after 15 mins by trypsin-coupled fluorescence assay.

The species named for experiment [10] is Homo sapiens. In words: Selectivity index, ratio of IC50 for human HDAC4 to IC50 for human HDAC6.
The species entered for experiment [11] is Homo sapiens. In words: Selectivity index, ratio of IC50 for human HDAC3 to IC50 for human HDAC6.
Experiment [12] deals with Histone deacetylase 1 (Homo sapiens, UniProt Q13547). Nature of the experiment: Inhibition of human HDAC1 after 15 mins by trypsin-coupled fluorescence assay.
Histone deacetylase 1, sequence (Q13547 whole entry): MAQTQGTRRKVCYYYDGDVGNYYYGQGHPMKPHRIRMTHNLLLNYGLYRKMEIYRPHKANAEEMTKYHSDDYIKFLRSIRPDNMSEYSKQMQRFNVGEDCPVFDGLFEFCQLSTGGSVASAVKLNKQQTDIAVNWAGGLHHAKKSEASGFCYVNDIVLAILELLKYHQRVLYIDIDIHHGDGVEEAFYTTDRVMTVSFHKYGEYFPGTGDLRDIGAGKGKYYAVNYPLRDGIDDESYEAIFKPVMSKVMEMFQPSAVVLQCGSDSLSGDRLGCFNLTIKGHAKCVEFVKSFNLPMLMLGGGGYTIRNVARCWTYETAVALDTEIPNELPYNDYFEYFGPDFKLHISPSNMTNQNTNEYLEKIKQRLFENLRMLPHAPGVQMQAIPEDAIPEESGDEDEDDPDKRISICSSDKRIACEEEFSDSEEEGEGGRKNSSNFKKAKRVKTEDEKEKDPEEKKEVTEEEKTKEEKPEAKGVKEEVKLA
For experiment [13], the target named is Histone deacetylase 5 (Homo sapiens, UniProt Q9UQL6). Nature of the experiment: Inhibition of human HDAC5 after 15 mins by trypsin-coupled fluorescence assay.
Histone deacetylase 5, sequence (Q9UQL6 whole entry): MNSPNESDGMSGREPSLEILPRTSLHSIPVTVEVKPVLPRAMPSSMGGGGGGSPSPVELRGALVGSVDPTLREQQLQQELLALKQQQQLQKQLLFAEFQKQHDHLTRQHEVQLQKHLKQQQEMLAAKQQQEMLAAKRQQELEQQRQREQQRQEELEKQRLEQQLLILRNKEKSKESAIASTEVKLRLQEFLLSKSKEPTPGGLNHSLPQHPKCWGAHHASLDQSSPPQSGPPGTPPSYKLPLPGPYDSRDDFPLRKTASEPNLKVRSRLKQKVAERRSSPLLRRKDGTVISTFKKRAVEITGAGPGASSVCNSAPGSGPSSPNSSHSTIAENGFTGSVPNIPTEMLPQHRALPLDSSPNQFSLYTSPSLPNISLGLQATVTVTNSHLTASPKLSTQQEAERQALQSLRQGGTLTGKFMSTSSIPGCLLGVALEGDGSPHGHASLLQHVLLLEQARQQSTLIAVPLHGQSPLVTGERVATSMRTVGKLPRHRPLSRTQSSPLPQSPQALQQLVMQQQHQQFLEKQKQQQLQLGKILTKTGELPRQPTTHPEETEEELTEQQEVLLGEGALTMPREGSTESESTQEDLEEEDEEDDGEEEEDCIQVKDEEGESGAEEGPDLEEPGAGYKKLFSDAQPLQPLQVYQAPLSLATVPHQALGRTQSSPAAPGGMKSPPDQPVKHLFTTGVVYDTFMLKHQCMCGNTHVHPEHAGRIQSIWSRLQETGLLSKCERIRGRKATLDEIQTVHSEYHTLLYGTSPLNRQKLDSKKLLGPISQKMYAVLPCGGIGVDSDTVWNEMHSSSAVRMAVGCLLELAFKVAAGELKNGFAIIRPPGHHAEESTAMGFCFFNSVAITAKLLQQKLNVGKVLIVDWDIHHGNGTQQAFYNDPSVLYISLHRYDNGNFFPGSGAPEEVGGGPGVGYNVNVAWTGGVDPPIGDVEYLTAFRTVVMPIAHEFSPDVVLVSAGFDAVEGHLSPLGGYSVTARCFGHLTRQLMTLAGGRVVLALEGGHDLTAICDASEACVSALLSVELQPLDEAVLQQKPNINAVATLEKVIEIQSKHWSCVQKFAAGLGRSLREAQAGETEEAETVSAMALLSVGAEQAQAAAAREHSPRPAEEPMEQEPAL

Histone deacetylase 9, sequence (Q9UKV0 whole entry): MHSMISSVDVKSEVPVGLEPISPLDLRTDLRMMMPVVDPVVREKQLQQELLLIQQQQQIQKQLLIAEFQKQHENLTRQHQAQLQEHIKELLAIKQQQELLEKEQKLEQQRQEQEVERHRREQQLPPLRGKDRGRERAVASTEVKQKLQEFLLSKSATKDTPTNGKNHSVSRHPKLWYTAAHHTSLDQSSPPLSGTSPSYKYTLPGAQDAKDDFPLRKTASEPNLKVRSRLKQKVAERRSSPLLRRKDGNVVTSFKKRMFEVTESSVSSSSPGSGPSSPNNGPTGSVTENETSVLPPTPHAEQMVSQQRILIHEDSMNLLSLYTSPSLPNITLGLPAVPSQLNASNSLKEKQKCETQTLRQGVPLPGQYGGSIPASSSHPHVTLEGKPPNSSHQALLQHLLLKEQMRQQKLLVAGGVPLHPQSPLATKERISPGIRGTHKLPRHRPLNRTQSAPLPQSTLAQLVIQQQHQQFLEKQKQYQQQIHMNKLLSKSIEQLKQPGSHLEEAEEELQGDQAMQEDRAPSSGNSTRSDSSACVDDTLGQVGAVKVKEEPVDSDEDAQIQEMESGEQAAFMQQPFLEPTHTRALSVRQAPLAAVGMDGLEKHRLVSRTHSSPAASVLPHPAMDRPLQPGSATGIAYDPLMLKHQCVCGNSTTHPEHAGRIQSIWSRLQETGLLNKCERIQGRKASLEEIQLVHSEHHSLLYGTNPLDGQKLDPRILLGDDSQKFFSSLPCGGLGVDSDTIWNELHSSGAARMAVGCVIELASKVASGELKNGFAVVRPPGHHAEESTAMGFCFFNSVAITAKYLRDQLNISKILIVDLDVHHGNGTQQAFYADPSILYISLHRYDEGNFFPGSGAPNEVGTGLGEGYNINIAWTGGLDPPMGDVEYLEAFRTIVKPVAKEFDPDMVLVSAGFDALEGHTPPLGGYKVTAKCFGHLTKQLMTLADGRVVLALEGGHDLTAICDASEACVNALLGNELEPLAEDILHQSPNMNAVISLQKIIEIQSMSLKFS
Histone deacetylase 3, sequence (O15379 whole entry): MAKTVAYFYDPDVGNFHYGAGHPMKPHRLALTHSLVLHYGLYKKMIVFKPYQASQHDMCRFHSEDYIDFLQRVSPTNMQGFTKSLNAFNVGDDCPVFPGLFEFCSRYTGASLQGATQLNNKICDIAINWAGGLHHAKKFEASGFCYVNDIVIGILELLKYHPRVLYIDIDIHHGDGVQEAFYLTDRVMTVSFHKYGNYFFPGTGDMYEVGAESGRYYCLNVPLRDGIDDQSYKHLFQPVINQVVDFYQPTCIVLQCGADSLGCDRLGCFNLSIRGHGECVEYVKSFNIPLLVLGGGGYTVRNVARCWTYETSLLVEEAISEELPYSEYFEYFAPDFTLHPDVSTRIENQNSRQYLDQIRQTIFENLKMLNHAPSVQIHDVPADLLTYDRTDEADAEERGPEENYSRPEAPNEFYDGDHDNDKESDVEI

Take `O=C(NO)c1ccc(CN(CCO)C(=O)Cc2ccccc2)cc1`: the Ratio IC50 in experiment [1], in experiment [2], in experiment [3], in experiment [5], in [10] and in experiment [11] was 15 to 400 throughout. Besides, the IC50 in [4] worked out at 3.7 µM; in [6], 5.3 µM; in experiment [7], 2100 nM; in experiment [8] it was 2200 nM; in [9], 1100 nM; in [12], 800 nM. Also, in experiment [13], the IC50 is 9.5 µM.

In general, IC50 refers to the concentration that gives 50% inhibition.
